Experimental data: patent publication US20080255104A1, “Nsaid Compositions” (EQUITECH CORPORATION, priority 2004, published 2008)
Values after ≈ are worked out from the molar mass of the structure shown. Marks after values point to notes of the source that are not given here.

Columns and labels:
[1] = pH 2-4; cited from earlier work
[2] = Solubility of meloxicam in simulated gastric fluid pH 1.2; format: physicochemical; details: for solubility at 72 h: simulated gastric fluid, pH 1.2, simulated gastric fluid, thermodynamic from solid
Method: Excess of different compositions and pure meloxicam powder were transferred into test tubes.
10 ml of USP simulated gastric fluid, pH 1.2 (SGF) was added.
Samples were shaken for 72 h at room temperature.
Filtered solutions were analyzed for meloxicam.

[3] = Oral bioavailability of ibuprofen crushed tablets in control and vagal-suppressed (Pain Model) rats; format: in vivo, Sprague-Dawley rats; details: Pain Model (vagal-suppressed, propantheline) rats, 20 mg/kg oral
Description: Delayed absorption caused by vagal suppression that has previously been reported in the literature (e.g., Jamali & Axelson, 1997) was used to test the absorption rates of new meloxicam formulations.
The animal models are adult male Sprague-Dawley rats with body weight of 250-300 g, and which were cared for in accordance with the principles and guidelines of the Canadian Council of Animal Care. All rats were catheterized in the right jugular vein for sample collection.
An animal model having suppressed vagal properties were produced by administering (intraperitoneal injection) to the rats two 20 mg/kg doses of propantheline (test, n=6), an anticholinergic agent with known vagal suppressive properties, the first dose at 2 hours prior to administration of an NSAID, and the second at 1 hour prior.
The tablets were crushed gently and small pieces were administered into the stomach via a plastic tube followed by 0.5 mL tap water. Animals were fasted after the first dose of propantheline until 4 hours post-meloxicam dose. They had free access to water.

[4] = 200 mg and 600 mg doses, dental surgery; cited from earlier work

Row | Compound | minimum solubility in buffered aqueous systems [1] | solubility in simulated gastric fluid when loaded on Neusilin® and mixed with Gelucire® 44/14 ([2]; pH 1.2, FIG. 7) | solubility at 72 h ([2]; pH 1.2, combination of Gelucire® and Neusilin®) | solubility at 72 h ([2]; pH 1.2, meloxicam alone) | solubility at 72 h ([2]; pH 1.2, with Gelucire® alone) | solubility at 72 h ([2]; pH 1.2, with the metal silicate alone) | AUC (0-8) [3] | Cmax [3] | Tmax [3] | delay in the mean time to peak concentration caused by surgery [4]
1 | Cc1cnc(NC(=O)C2=C(O)c3ccccc3S(=O)(=O)N2C)s1 [meloxicam] | less than 0.5 µg/ml | substantially increased | 11500 µg/mL | 7 µg/mL (≈ 19.9 µM) | 10 µg/mL (≈ 28.5 µM) | 23 to 41 µg/mL (≈ 65.5 to 117 µM) | – | – | – | –
2 | CC(C)Cc1ccc(C(C)C(=O)O)cc1 (racemic) [ibuprofen] | – | – | – | – | – | – | 81.8 μg/h/mL^−1 | 13.8* μg/mL | 45 min | two
